Measured values from ChEMBL document CHEMBL3046723, “Ionic liquids with herbicidal anions” (Tetrahedron, 2011).
The source made the active and inactive calls. The calls are words filed in the database; no cut-off is given here.

How the values were obtained:
[1] = tested on: Centaurea cyanus; test: Herbicidal activity against Centaurea cyanus measured at 4 weeks post-drug dosage; format: functional, organism-based
[2] = tested on: Brassica napus; test: Herbicidal activity against Brassica napus (oilseed rape) measured at 4 weeks post-drug dosage; format: functional, organism-based
[3] = tested on: Viola arvensis; test: Herbicidal activity against Viola arvensis measured at 4 weeks post-drug dosage; format: functional, organism-based
[4] = tested on: Euphorbia helioscopia; test: Herbicidal activity against Euphorbia helioscopia measured at 4 weeks post-drug dosage; format: functional, organism-based
[5] = tested on: Thlaspi arvense; test: Herbicidal activity against Thlaspi arvense measured at 4 weeks post-drug dosage; format: functional, organism-based
[6] = tested on: Myosotis arvensis; test: Herbicidal activity against Myosotis arvensis measured at 4 weeks post-drug dosage; format: functional, organism-based
[7] = tested on: Chenopodium album; test: Herbicidal activity against Chenopodium album measured at 4 weeks post-drug dosage; format: functional, organism-based
[8] = tested on: Triticum aestivum; test: Reduction in Triticum aestivum (wheat) stem length applied at the end of tillering stage of crop measured at 4 weeks post-drug dosage; format: functional, organism-based
[9] = Acute toxicity in po dosed Rattus norvegicus Wistar (rat); format: organism-based; details: in vivo
[10] = tested on: Thlaspi arvense; test: Herbicidal activity against Thlaspi arvense in winter wheat crop field at 900 g/ha applied at the end of tillering stage of crop measured at 4 weeks post-drug dosage; format: functional
[11] = tested on: Triticum aestivum; test: Increase in winter Triticum aestivum (wheat) crop yield assessed as weight of 1000 grains at 900 g/ha applied at the end of tillering stage of crop measured at 4 weeks post-drug dosage (reference value: 37.79 g); format: functional
[12] = tested on: Triticum aestivum; test: Increase in winter Triticum aestivum (wheat) crop yield assessed as gluten content at 900 g/ha applied at the end of tillering stage of crop measured at 4 weeks post-drug dosage (reference value: 25.95%); format: functional
[13] = tested on: Triticum aestivum; test: Increase in winter Triticum aestivum (wheat) crop yield assessed as protein content at 900 g/ha applied at the end of tillering stage of crop measured at 4 weeks post-drug dosage (reference value: 11.12%); format: functional
[14] = tested on: Triticum aestivum; test: Increase in winter Triticum aestivum (wheat) crop yield at 900 g/ha applied at the end of tillering stage of crop measured at 4 weeks post-drug dosage (reference value: 7.40 t/ha); format: functional
[15] = tested on: Matricaria; test: Herbicidal activity against Matricaria inodora in winter wheat crop field at 900 g/ha applied at the end of tillering stage of crop measured at 4 weeks post-drug dosage; format: functional
[16] = tested on: Brassica napus; test: Herbicidal activity against Brassica napus (oilseed rape) in winter wheat crop field at 900 g/ha applied at the end of tillering stage of crop measured at 4 weeks post-drug dosage; format: functional
[17] = tested on: Consolida regalis; test: Herbicidal activity against Consolida regalis in winter wheat crop field at 900 g/ha applied at the end of tillering stage of crop measured at 4 weeks post-drug dosage; format: functional
[18] = tested on: Triticum aestivum; test: Increase in winter Triticum aestivum (wheat) crop yield assessed as protein content at 600 g/ha applied at the end of tillering stage of crop measured at 4 weeks post-drug dosage (reference value: 11.12%); format: functional
[19] = tested on: Matricaria; test: Herbicidal activity against Matricaria inodora in winter wheat crop field at 600 g/ha applied at the end of tillering stage of crop measured at 4 weeks post-drug dosage; format: functional
[20] = tested on: Consolida regalis; test: Herbicidal activity against Consolida regalis in winter wheat crop field at 600 g/ha applied at the end of tillering stage of crop measured at 4 weeks post-drug dosage; format: functional
[21] = tested on: Triticum aestivum; test: Increase in winter Triticum aestivum (wheat) crop yield assessed as gluten content at 600 g/ha applied at the end of tillering stage of crop measured at 4 weeks post-drug dosage (reference value: 25.95%); format: functional
[22] = tested on: Brassica napus; test: Herbicidal activity against Brassica napus (oilseed rape) in winter wheat crop field at 600 g/ha applied at the end of tillering stage of crop measured at 4 weeks post-drug dosage; format: functional
[23] = tested on: Thlaspi arvense; test: Herbicidal activity against Thlaspi arvense in winter wheat crop field at 600 g/ha applied at the end of tillering stage of crop measured at 4 weeks post-drug dosage; format: functional
[24] = tested on: Triticum aestivum; test: Increase in winter Triticum aestivum (wheat) crop yield at 600 g/ha applied at the end of tillering stage of crop measured at 4 weeks post-drug dosage (reference value: 7.40 t/ha); format: functional
[25] = tested on: Triticum aestivum; test: Increase in winter Triticum aestivum (wheat) crop yield assessed as weight of 1000 grains at 600 g/ha applied at the end of tillering stage of crop measured at 4 weeks post-drug dosage (reference value: 37.79 g); format: functional

**Q.** Which results are given for C[N+](C)(C)CCl.Cc1cc(Cl)ccc1OCC(=O)[O-] [listing 1 of 2 here]?
**A.** Activity [1]: Active; Activity [2]: Active; Activity [3]: Active; Activity [4]: Active; Activity [5]: Active; Activity [6]: Active; Activity [7]: Active; inhibition [8]: Active

**Q.** For Cc1cc(Cl)ccc1OCC(=O)O [METAXON], which LD50 [9] is on record?
**A.** Its LD50 is 962 mg/kg.

**Q.** For Cc1cc(Cl)ccc1OCC(=O)[O-].[Na+], which Activity [10] is on record?
**A.** Its Activity is 100%.

**Q.** And the Activity [11]?
**A.** The Activity was 39.3 g.

**Q.** What about the Activity [12] of the same molecule?
**A.** The Activity was 27.33%.

**Q.** What about the Activity [13] of the same molecule?
**A.** The Activity was 11.08%.

**Q.** What about the Crop_yield [14] of the same molecule?
**A.** The Crop_yield was 7.81 tons/ha.

**Q.** What about the Activity [15] of the same molecule?
**A.** Its Activity is 56%.

**Q.** What about the Activity [16] of the same molecule?
**A.** The Activity was 100%.

**Q.** And the Activity [17]?
**A.** Its Activity is 96%.

**Q.** For C[N+](C)(C)CCCl.[Cl-] [CHLORMEQUAT CHLORIDE], which LD50 [9] is on record?
**A.** The LD50 was 1300 mg/kg.

**Q.** Which LD50 [9] does the source give for CCCCC(CC)OC(=O)COc1ccc(Cl)cc1C (centres undefined) here?
**A.** Its LD50 is 1300 mg/kg.

**Q.** What about the Activity [18] of the same molecule?
**A.** The Activity was 11.03%.

**Q.** And the Activity [19]?
**A.** Its Activity is 62%.

**Q.** What about the Activity [20] of the same molecule?
**A.** The Activity was 95%.

**Q.** And the Activity [21]?
**A.** The Activity was 27.12%.

**Q.** And the Activity [22]?
**A.** The Activity was 100%.

**Q.** And the Activity [23]?
**A.** The Activity was 100%.

**Q.** And the Crop_yield [24]?
**A.** Its Crop_yield is 7.8 tons/ha.

**Q.** And the Activity [25]?
**A.** Its Activity is 39.78 g.

**Q.** Which LD50 [9] does the source give for CCCCCCCCCC[N+](C)(C)CCCCCCCCCC.Cc1cc(Cl)ccc1OCC(=O)[O-] here?
**A.** Its LD50 is 300 mg/kg.

**Q.** For C[N+](C)(C)CCl.Cc1cc(Cl)ccc1OCC(=O)[O-] [listing 2 of 2 here], which LD50 [9] is on record?
**A.** Its LD50 is 300 mg/kg.
